TGI data for 20 molecules are collected here from PubChem BioAssay (NCI).

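Cultured in 96-well plates, cells were exposed to test compound for 48 hours across five concentrations. TGI is the concentration that stops growth completely.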

Some test systems named below: K-562 leukemia; OVCAR-8 ovarian; RPMI-8226 leukemia; HS 578T breast; LOX IMVI melanoma; SN12C renal; 786-0 renal; HCT-116 colon; NCI-H460 lung; SK-MEL-28 melanoma.
Assay in all cases: NCI tumour cell line growth inhibition, 48 h

Turning to `CC(C)(C)c1ccc(CN2CCN(C(c3ccccc3)c3ccc(Cl)cc3)CC2)cc1` (stereo not given), the TGI in the assay with K-562 leukemia, with OVCAR-8 ovarian, in the assay with RPMI-8226 leukemia, in the assay with HS 578T breast, in the assay on LOX IMVI melanoma and in the assay on SN12C renal was over 100 µM each time. For the same molecule, the TGI with 786-0 renal, in the assay with HCT-116 colon, with NCI-H460 lung and in the assay on SK-MEL-28 melanoma was over 100 µM throughout.

For the molecule `O=c1[nH]c2ccc(CC(=S)N3CCOCC3)cc2s1`, the TGI with K-562 leukemia, in the assay with OVCAR-8 ovarian, in the assay with RPMI-8226 leukemia, with HS 578T breast, in the assay with LOX IMVI melanoma and in the assay on SN12C renal was over 100 µM each time. For the same molecule, the TGI in the assay on 786-0 renal, in the assay with HCT-116 colon, in the assay on NCI-H460 lung and with SK-MEL-28 melanoma was over 100 µM in each case.

`c1ccc(N=C2SC(=NNc3ccccc3)SC2=Nc2ccccc2)cc1`: the TGI with K-562 leukemia, in the assay with OVCAR-8 ovarian, in the assay with RPMI-8226 leukemia, in the assay on HS 578T breast, in the assay on LOX IMVI melanoma and in the assay with SN12C renal was over 100 µM in each case. The TGI in the assay with 786-0 renal, in the assay with HCT-116 colon, in the assay on NCI-H460 lung and with SK-MEL-28 melanoma was over 100 µM throughout.

Regarding `CN1C(c2ccccc2)=CC(=O)C(O)=C(c2ccccc2)S1(=O)=O`, the TGI in the assay on K-562 leukemia, in the assay with OVCAR-8 ovarian, with RPMI-8226 leukemia, in the assay on HS 578T breast, in the assay with LOX IMVI melanoma and in the assay on SN12C renal was over 100 µM in each case. The TGI in the assay with 786-0 renal, with HCT-116 colon, in the assay with NCI-H460 lung and with SK-MEL-28 melanoma was over 100 µM in each case.

With `O=C1c2ccccc2-c2nc(-c3cccnc3)cc3c2c1nc1ccccc13`, the TGI with K-562 leukemia, in the assay with OVCAR-8 ovarian, in the assay with RPMI-8226 leukemia, in the assay on HS 578T breast, in the assay on LOX IMVI melanoma and in the assay with SN12C renal was over 100 µM in each case. For the same molecule, the TGI in the assay on 786-0 renal, in the assay with HCT-116 colon, in the assay on NCI-H460 lung and with SK-MEL-28 melanoma was over 100 µM in each case.

With `N#Cc1[nH]c(=O)n(-c2ccc(Cl)cc2)c1N`, the TGI with K-562 leukemia, with OVCAR-8 ovarian, with RPMI-8226 leukemia, in the assay on HS 578T breast, in the assay on LOX IMVI melanoma and in the assay on SN12C renal was over 10 µM in each case. For the same molecule, the TGI with 786-0 renal, in the assay with HCT-116 colon, with NCI-H460 lung and in the assay with SK-MEL-28 melanoma was over 10 µM in each case.

`Cc1cc(N(CCC#N)CCC#N)ccc1/C(N=Nc1cccc([N+](=O)[O-])c1)=N/NC(=O)c1cc(Cl)ccc1O`: the TGI with K-562 leukemia was over 100 µM; in the assay on OVCAR-8 ovarian, over 100 µM; with RPMI-8226 leukemia, 47.5 µM; in the assay on HS 578T breast it was over 100 µM; in the assay on LOX IMVI melanoma, 49.3 µM; in the assay with SN12C renal it was over 100 µM. The TGI in the assay with 786-0 renal is over 100 µM; in the assay on HCT-116 colon, over 100 µM; in the assay on NCI-H460 lung it was 88.6 µM; in the assay with SK-MEL-28 melanoma, over 100 µM.

In the case of `CC(=O)Nc1ccc(CNc2cc(=O)[nH]c(=O)[nH]2)cc1`, the TGI in the assay on K-562 leukemia, in the assay with OVCAR-8 ovarian, with RPMI-8226 leukemia, in the assay with HS 578T breast, in the assay on LOX IMVI melanoma and with SN12C renal was over 100 µM in each case. In addition, the TGI in the assay with 786-0 renal, in the assay on HCT-116 colon, with NCI-H460 lung and with SK-MEL-28 melanoma was over 100 µM throughout.

As to `O=C1C2C=CC1C1C(=O)OC(=O)C21` (stereo not given), the TGI in the assay with K-562 leukemia, in the assay on OVCAR-8 ovarian, in the assay on RPMI-8226 leukemia, with HS 578T breast, in the assay on LOX IMVI melanoma and in the assay with SN12C renal was over 100 µM throughout. Also, the TGI with 786-0 renal, with HCT-116 colon, in the assay with NCI-H460 lung and in the assay on SK-MEL-28 melanoma was over 100 µM each time.

Regarding `Nc1nc(Cl)cc(NCC2(CO)CCC(Cc3ccccc3)C2)n1` (stereo not given), the TGI in the assay on K-562 leukemia was 64.8 µM; in the assay with OVCAR-8 ovarian it was over 100 µM; in the assay with RPMI-8226 leukemia, 62.7 µM; in the assay with HS 578T breast, over 79.9 µM; with LOX IMVI melanoma, 37.4 µM; in the assay on SN12C renal, over 100 µM. Moreover, the TGI in the assay on 786-0 renal, with HCT-116 colon, with NCI-H460 lung and in the assay on SK-MEL-28 melanoma was over 100 µM each time.

Turning to `O=C(CSc1nc(=O)[nH]c2nc[nH]c12)Nc1ccccc1`, the TGI in the assay on K-562 leukemia, in the assay on OVCAR-8 ovarian, in the assay with RPMI-8226 leukemia, in the assay on HS 578T breast, in the assay on LOX IMVI melanoma and in the assay with SN12C renal was over 100 µM throughout. Moreover, the TGI with 786-0 renal, with HCT-116 colon, with NCI-H460 lung and in the assay with SK-MEL-28 melanoma was over 100 µM in each case.

`Cc1nn(C(=O)c2ccc(Cl)cc2)c2c1C(c1ccc([N+](=O)[O-])cc1)SC(N)=N2` (stereo not given): the TGI with K-562 leukemia, in the assay on OVCAR-8 ovarian, in the assay on RPMI-8226 leukemia, in the assay on HS 578T breast, in the assay on LOX IMVI melanoma and in the assay with SN12C renal was over 10 µM throughout. The TGI in the assay with 786-0 renal, in the assay with HCT-116 colon, in the assay on NCI-H460 lung and in the assay with SK-MEL-28 melanoma was over 10 µM each time.

On to `COc1ccc(C2SCC(=O)N2c2ccc(-c3ccc(-n4c(-c5ccccc5)nc5ccccc5c4=O)cc3)cc2)cc1` (stereo not given), for which the TGI in the assay with K-562 leukemia, with OVCAR-8 ovarian, with RPMI-8226 leukemia, in the assay on HS 578T breast, in the assay on LOX IMVI melanoma and in the assay on SN12C renal was over 100 µM in each case. Also, the TGI in the assay on 786-0 renal, with HCT-116 colon, in the assay on NCI-H460 lung and in the assay on SK-MEL-28 melanoma was over 100 µM each time.

In the case of `O=C1OC(c2ccc(O)c(Cl)c2)(c2ccc(O)c(Cl)c2)c2ccc(Br)c3cccc1c23` (tested in a mixture with another compound), the TGI in the assay on K-562 leukemia is 46.2 µM; in the assay on OVCAR-8 ovarian, 51.9 µM; with RPMI-8226 leukemia, 44.5 µM; in the assay with HS 578T breast, over 53.1 µM; in the assay with LOX IMVI melanoma it was 40.3 µM; with SN12C renal it was 32 µM. For the same molecule, the TGI with 786-0 renal was 35.8 µM; with HCT-116 colon, 36.3 µM; with NCI-H460 lung, 34.7 µM; in the assay on SK-MEL-28 melanoma, 36 µM.

`COc1cc(OC)c2c(c1OC)OCC(Cc1ccc(O)cc1)C2=O` (stereo not given): the TGI with K-562 leukemia, in the assay on OVCAR-8 ovarian, with RPMI-8226 leukemia, with HS 578T breast, in the assay on LOX IMVI melanoma and in the assay with SN12C renal was over 25 µM in each case. Besides, the TGI with 786-0 renal, in the assay on HCT-116 colon, in the assay with NCI-H460 lung and in the assay with SK-MEL-28 melanoma was over 25 µM throughout.

Consider `Cc1ccc(/C=C/C(=O)c2c([O-])on[n+]2-c2ccccc2)cc1`, for which the TGI was over 100 µM with K-562 leukemia; 4.05 µM in the assay on OVCAR-8 ovarian; 6.35 µM in the assay on RPMI-8226 leukemia; over 25.8 µM in the assay with HS 578T breast; 3.74 µM with LOX IMVI melanoma; 31.3 µM in the assay with SN12C renal. The TGI with 786-0 renal amounted to 3.78 µM; with HCT-116 colon, 3.65 µM; with NCI-H460 lung, 6.38 µM; in the assay with SK-MEL-28 melanoma, 5.75 µM.

As to `NC1C/C(=N\O)c2c(I)sc(I)c21` (stereo not given), the TGI in the assay on K-562 leukemia is over 74.1 µM; with OVCAR-8 ovarian, 29.1 µM; with RPMI-8226 leukemia it was over 42 µM; in the assay with HS 578T breast, 48.9 µM; with LOX IMVI melanoma it was 15.6 µM; in the assay with SN12C renal, over 56.6 µM. The TGI with 786-0 renal is over 50.9 µM; with HCT-116 colon, 15.2 µM; in the assay with NCI-H460 lung, 52 µM; in the assay on SK-MEL-28 melanoma, 32.5 µM.

In the case of `CC(=O)Oc1ccc2c(c1)c1c(=O)oc(N(C)C)nc1n2Cc1ccccc1`, the TGI in the assay on K-562 leukemia, in the assay with OVCAR-8 ovarian, in the assay on RPMI-8226 leukemia, with HS 578T breast, in the assay on LOX IMVI melanoma and with SN12C renal was over 100 µM each time. The TGI in the assay with 786-0 renal, with HCT-116 colon, with NCI-H460 lung and in the assay on SK-MEL-28 melanoma was over 100 µM in each case.

Consider `C=C=C(C)[Si](C)(C)C`, for which the TGI in the assay on K-562 leukemia, with OVCAR-8 ovarian, in the assay with RPMI-8226 leukemia, in the assay with HS 578T breast, in the assay with LOX IMVI melanoma and in the assay with SN12C renal was over 100 µM throughout. Further, the TGI in the assay on 786-0 renal, in the assay on HCT-116 colon, with NCI-H460 lung and in the assay with SK-MEL-28 melanoma was over 100 µM in each case.

As to `CC(=O)OCC1OC(n2c(N)c(C#N)c(-c3ccccc3)c(C#N)c2=S)C(OC(C)=O)C(OC(C)=O)C1OC(C)=O` (stereo not given), the TGI in the assay with K-562 leukemia was over 100 µM; in the assay on OVCAR-8 ovarian, over 100 µM; with RPMI-8226 leukemia, over 100 µM; with HS 578T breast, 54.1 µM; in the assay on LOX IMVI melanoma it was over 100 µM; in the assay with SN12C renal, over 100 µM. The TGI was over 86.4 µM in the assay on 786-0 renal, over 100 µM in the assay on HCT-116 colon, over 100 µM in the assay on NCI-H460 lung and over 100 µM in the assay on SK-MEL-28 melanoma.
